In ChEMBL document CHEMBL4011581, “Interference with bile salt export pump function is a susceptibility factor for human liver injury in drug development” (Toxicol Sci, 2010):

Experiments:
[1] = target: T1, Bile salt export pump (Homo sapiens, UniProt O95342); test: (§1) Inhibition of human BSEP expressed in fall armyworm sf9 cell membrane vesicles assessed as reduction in vesicle-associated [3H]-taurocholate at 133 uM preincubated for 10 mins prior to ATP addition measured after 15 mins in presence of [3H]-taurocholate by topcount based membrane vesicle transport assay relative to control; type: ADME
[2] = target: T1, Bile salt export pump; test: Inhibition of BSEP in human hepatocytes assessed as reduction in biliary excretion of [3H]-taurocholate in cell lysates after 15 mins by liquid scintillation counting; type: ADME, cell-based, Lysate
[3] = target: T1, Bile salt export pump; test: Inhibition of human BSEP expressed in fall armyworm sf9 cell membrane vesicles assessed as reduction in ATP-dependent [3H]-taurocholic acid uptake at 100 uM preincubated for 30 mins prior to [3H]-taurocholic acid addition by liquid scintillation counting relative to control; type: ADME
[4] = target: T1, Bile salt export pump; test: Inhibition of human BSEP expressed in fall armyworm sf9 cell membrane vesicles assessed as reduction in ATP-dependent [3H]-taurocholic acid uptake preincubated for 30 mins prior to [3H]-taurocholic acid addition by liquid scintillation counting; type: ADME
[5] = target: T1, Bile salt export pump; test: as §1, with “cell plasma” for “cell”, “transport” for “at 133 uM”, “assay” for “assay relative to control”; type: ADME
[6] = target: T1, Bile salt export pump; test: Inhibition of BSEP in human hepatocytes assessed as reduction in biliary excretion of [3H]-taurocholate in cell lysates at 10 to 100 uM after 15 mins by liquid scintillation counting relative to control; type: ADME, cell-based, Lysate

Structure (SMILES)	IC50 [5] [µM]	other results
CC(C)C(=O)Nc1ccc([N+](=O)[O-])c(C(F)(F)F)c1 [FLUTAMIDE]	> 135	Imax [1]: 50%; IC50 [2]: 75 µM; Imax [3]: 40 to 50%; IC50 [4]: 50 µM; Imax [6]: 20%
COc1cc2c3cc1Oc1cc(ccc1O)C[C@@H]1c4c(cc(OC)c(O)c4Oc4ccc(cc4)C[C@@H]3N(C)CC2)CC[N+]1(C)C [TUBOCURARINE]	> 135	–
COc1cc2nc(N3CCN(C(=O)c4ccco4)CC3)nc(N)c2cc1OC [PRAZOSIN]	> 135	–
NC[C@@H]1O[C@H](O[C@H]2[C@@H](O)[C@H](O[C@@H]3[C@@H](O)[C@H](N)C[C@H](N)[C@H]3O[C@H]3O[C@H](CN)[C@@H](O)[C@H](O)[C@H]3N)O[C@@H]2CO)[C@H](N)[C@@H](O)[C@@H]1O [FRAMYCETIN]	> 135	–
COc1ccc(C(CN(C)C)C2(O)CCCCC2)cc1 (stereo not given) [VENLAFAXINE]	> 135	–
CC(C)NCC(O)c1ccc(NS(C)(=O)=O)cc1 (stereo not given) [SOTALOL]	> 135	–
COc1ccc(Cc2nccc3cc(OC)c(OC)cc23)cc1OC [PAPAVERINE]	> 135	–
CC(C)NNC(=O)c1ccncc1 [IPRONIAZID]	> 135	–
NCC[C@H](O)C(=O)N[C@@H]1C[C@H](N)[C@@H](O[C@H]2O[C@H](CN)[C@@H](O)[C@H](O)[C@H]2O)[C@H](O)[C@H]1O[C@H]1O[C@H](CO)[C@@H](O)[C@H](N)[C@H]1O [AMIKACIN]	> 135	–
NNC(=O)c1ccncc1 [ISONIAZID]	> 135	–
O=P1(N(CCCl)CCCl)NCCCO1 (stereo not given) [CYCLOPHOSPHAMIDE ANHYDROUS]	> 135	–
CS(=O)(=O)c1ccc(C2=C(c3ccccc3)C(=O)OC2)cc1 [ROFECOXIB]	> 135	–
COc1ccc2[nH]c([S+]([O-])Cc3ncc(C)c(OC)c3C)nc2c1 (stereo not given) [OMEPRAZOLE]	75 to 105	–
Cc1c(C)c2c(c(C)c1O)CCC(C)(COc1ccc(CC3SC(=O)NC3=O)cc1)O2 (stereo not given) [TROGLITAZONE]	5.9	–
O=C(NC1CCN(CCc2c[nH]c3ccccc23)CC1)c1ccccc1 [INDORAMIN]	> 135	–
